Test results published in patent US6358885B1, “Substituted phenylheterocyclic herbicides” (Mississippi State University, priority 1992, dated 2002).

Columns and labels:
barley [1] = test: Test B preemergence/postemergence greenhouse plant response rating 0 to 10; format: in vivo, Hordeum vulgare; conditions: for Plant response rating, Barley: 0 to 10 scale
Method in brief: (§1)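 Planted seeds are treated preemergence with compound dissolved in a non-phytotoxic solvent, while postemergence applications go onto plants of two to eighteen cm. Plants stay in the greenhouse twelve to sixteen days and are then rated visually relative to controls.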

blackgrass = test: as above; format: in vivo, Alopecurus myosuroides; conditions: for Plant response rating, Blackgrass: 0 to 10 scale
Method in brief: as §1

cheatgrass = test: as above; format: in vivo, Bromus secalinus; conditions: for Plant response rating, Cheatgrass: 0 to 10 scale
Method in brief: as §1

crabgrass = test: as above; format: in vivo, Digitaria spp.; conditions: for Plant response rating, Crabgrass: 0 to 10 scale
Method in brief: as §1

giant foxtail = test: as above; format: in vivo, Setaria faberii; conditions: 0 to 10 scale
Method in brief: as §1

lambsquarters [2] = test: as above; format: in vivo, Chenopodium album; conditions: 0 to 10 scale
Method in brief: as §1

rape = test: as above; format: in vivo, Brassica napus; conditions: 0 to 10 scale
Method in brief: as §1

soybean [3] = test: as above; format: in vivo, Glycine max; conditions: 0 to 10 scale
Method in brief: as §1

velvetleaf = test: as above; format: in vivo, Abutilon theophrasti; conditions: 0 to 10 scale
Method in brief: as §1

purple nutsedge = test: as above; format: in vivo, Cyperus rotundus; conditions: 0 to 10 scale
Method in brief: as §1

barley [4] = test: Test C preemergence/postemergence greenhouse plant response rating 0 to 100; format: in vivo, Hordeum vulgare; conditions: POSTEMERGENCE
From the text: (§2) The compounds evaluated in this test were formulated in a non-phytoxic solvent and applied to the soil surface before plant seedlings emerged (preemergence application), to water that covered the soil surface (flood application), and to plants that were in the one-to-four leaf stage (postemergence application). A sandy loam soil was used for the preemergence and postemergence tests, while a silt loam soil was used in the flood test. Water depth was approximately 2.5 cm for the flood test and was maintained at this level for the duration of the test. Plant species in the preemergence and postemergence tests consisted of barley (Hordeum vulgare), bedstraw (Galium aparine), blackgrass (Alopecurus myosuroides), chickweed (Stellaria media), corn (Zea mays), cotton (Gossypium hirsutum), crabgrass (Digitaria sanguinalis), downy brome (Bromus tectorum), giant foxtail (Setaria faberii), lambsquarters (Chenopodium album), morningglory (Ipomoea hederacea), pigweed ([…]), rape (Brassica napus), ryegrass (Lolium multiflorum), sorghum (Sorghum bicolor), soybean (Glycine max), speedwell (Veronica persica), sugar beet (Beta vulgaris), velvetleaf (Abutilon theophrasti), wheat (Triticum aestivum), wild buckwheat (Polygonum convolvulus), and wild oat (Avena fatua). All plant species were planted one day before application of the compound for the preemergence portion-of this test. Plantings of these species were adjusted to produce plants of appropriate size for the post-emergence portion of the test. […] All plant species were grown using normal greenhouse practices. Visual evaluations of injury expressed on treated plants, when compared to untreated controls, were recorded approximately fourteen to twenty one days after application of the test compound. […] A dash (-) response means no test result.

chickweed = test: as above; format: in vivo, Stellaria media; conditions: POSTEMERGENCE
From the text: as §2

lambsquarters [5] = test: as above; format: in vivo, Chenopodium album; conditions: POSTEMERGENCE
From the text: as §2

pigweed = test: as above; format: in vivo, Amaranthusretroflexus; conditions: POSTEMERGENCE
From the text: as §2

ryegrass = test: as above; format: in vivo, Lolium multiflorum; conditions: POSTEMERGENCE
From the text: as §2

soybean [6] = test: as above; format: in vivo, Glycine max; conditions: POSTEMERGENCE
From the text: as §2

sugar beet = test: as above; format: in vivo, Beta vulgaris; conditions: POSTEMERGENCE
From the text: as §2

wild buckwheat = test: as above; format: in vivo, Polygonum convolvulus; conditions: POSTEMERGENCE
From the text: as §2

CC(C)N1C(=O)COc2cc(F)c(-c3nn4c(c3Cl)CCCC4)cc21 [Compound 31]
Plant response rating, Barley (barley [1]; POSTEMERGENCE, Rate 10 g/ha): 5
Plant response rating (0 to 10 scale), Barley (barley [1]; POSTEMERGENCE, Rate 50 g/ha): 5
Plant response rating, Barley (barley [1]; PREEMERGENCE, Rate 10 g/ha): 0
Plant response rating, Barley (barley [1]; PREEMERGENCE, Rate 50 g/ha): 0
Plant response rating, Blackgrass (blackgrass; POSTEMERGENCE, Rate 10 g/ha): 4
Plant response rating (0 to 10 scale), Blackgrass (blackgrass; POSTEMERGENCE, Rate 50 g/ha): 4
Plant response rating, Blackgrass (blackgrass; PREEMERGENCE, Rate 10 g/ha): 3
Plant response rating, Blackgrass (blackgrass; PREEMERGENCE, Rate 50 g/ha): 6
Plant response rating, Cheatgrass (cheatgrass; POSTEMERGENCE, Rate 10 g/ha): 5
Plant response rating (0 to 10 scale), Cheatgrass (cheatgrass; POSTEMERGENCE, Rate 50 g/ha): 6
Plant response rating, Cheatgrass (cheatgrass; PREEMERGENCE, Rate 10 g/ha): 2
Plant response rating, Cheatgrass (cheatgrass; PREEMERGENCE, Rate 50 g/ha): 6
Plant response rating, Crabgrass (crabgrass; POSTEMERGENCE, Rate 10 g/ha): 4
Plant response rating (0 to 10 scale), Crabgrass (crabgrass; POSTEMERGENCE, Rate 50 g/ha): 4
Plant response rating, Crabgrass (crabgrass; PREEMERGENCE, Rate 10 g/ha): 0
Plant response rating, Crabgrass (crabgrass; PREEMERGENCE, Rate 50 g/ha): 2
Plant response rating, Giant foxtail (giant foxtail; POSTEMERGENCE, Rate 10 g/ha): 5
Plant response rating, Giant foxtail (giant foxtail; POSTEMERGENCE, Rate 50 g/ha): 5
Plant response rating, Giant foxtail (giant foxtail; PREEMERGENCE, Rate 10 g/ha): 0
Plant response rating, Giant foxtail (giant foxtail; PREEMERGENCE, Rate 50 g/ha): 3
Plant response rating, Lambsquarter (lambsquarters [2]; POSTEMERGENCE, Rate 10 g/ha): 10
Plant response rating, Lambsquarter (lambsquarters [2]; POSTEMERGENCE, Rate 50 g/ha): 10
Plant response rating, Lambsquarter (lambsquarters [2]; PREEMERGENCE, Rate 50 g/ha): 10
Plant response rating, Rape (rape; POSTEMERGENCE, Rate 10 g/ha): 5
Plant response rating, Rape (rape; POSTEMERGENCE, Rate 50 g/ha): 9
Plant response rating, Rape (rape; PREEMERGENCE, Rate 50 g/ha): 1
Plant response rating, Soybean (soybean [3]; POSTEMERGENCE, Rate 10 g/ha): 7
Plant response rating, Soybean (soybean [3]; POSTEMERGENCE, Rate 50 g/ha): 7
Plant response rating, Soybean (soybean [3]; PREEMERGENCE, Rate 50 g/ha): 0
Plant response rating, Velvetleaf (velvetleaf; POSTEMERGENCE, Rate 10 g/ha): 10
Plant response rating, Velvetleaf (velvetleaf; POSTEMERGENCE, Rate 50 g/ha): 10
Plant response rating, Velvetleaf (velvetleaf; PREEMERGENCE, Rate 50 g/ha): 9
Plant response rating, Nutsedge (purple nutsedge; POSTEMERGENCE, Rate 10 g/ha): 2
Plant response rating, Nutsedge (purple nutsedge; POSTEMERGENCE, Rate 50 g/ha): 5
Plant response rating, Nutsedge (purple nutsedge; PREEMERGENCE, Rate 50 g/ha): 0
Plant response rating Barley Igri (barley [4]; 62 g/ha, 0 to 100 scale): 50
Plant response rating (0 to 100), Barley Igri (barley [4]; Rate 1 g/ha): 20
Plant response rating (0 to 100), Barley Igri (barley [4]; Rate 4 g/ha): 30
Plant response rating (0 to 100), Barley Igri (barley [4]; Rate 16 g/ha): 40
Plant response rating, Chickweed (chickweed; 62 g/ha, 0 to 100 scale): 90
Plant response rating (0 to 100), Chickweed (chickweed; Rate 4 g/ha): 20
Plant response rating (0 to 100), Chickweed (chickweed; Rate 16 g/ha): 80
Plant response rating Lambsquarters (lambsquarters [5]; 62 g/ha, 0 to 100 scale): 95
Plant response rating (0 to 100), Lambsquarters (lambsquarters [5]; Rate 1 g/ha): 40
Plant response rating (0 to 100), Lambsquarters (lambsquarters [5]; Rate 16 g/ha): 85
Plant response rating Pigweed (pigweed; 62 g/ha, 0 to 100 scale): 100
Plant response rating (0 to 100), Pigweed (pigweed; Rate 1 g/ha): 95
Plant response rating (0 to 100), Pigweed (pigweed; Rate 4 g/ha): 100
Plant response rating (0 to 100), Pigweed (pigweed; Rate 16 g/ha): 100
Plant response rating Ryegrass (ryegrass; 62 g/ha, 0 to 100 scale): 40
Plant response rating (0 to 100), Ryegrass (ryegrass; Rate 1 g/ha): 10
Plant response rating (0 to 100), Ryegrass (ryegrass; Rate 4 g/ha): 20
Plant response rating (0 to 100), Ryegrass (ryegrass; Rate 16 g/ha): 30
Plant response rating, Soybean (soybean [6]; 62 g/ha, 0 to 100 scale): 80
Plant response rating (0 to 100), Soybean (soybean [6]; Rate 1 g/ha): 30
Plant response rating (0 to 100), Soybean (soybean [6]; Rate 4 g/ha): 40
Plant response rating (0 to 100), Soybean (soybean [6]; Rate 16 g/ha): 60
Plant response rating, Sugar beet (sugar beet; 62 g/ha, 0 to 100 scale): 100
Plant response rating (0 to 100), Sugar beet (sugar beet; Rate 1 g/ha): 60
Plant response rating (0 to 100), Sugar beet (sugar beet; Rate 4 g/ha): 100
Plant response rating (0 to 100), Sugar beet (sugar beet; Rate 16 g/ha): 100
Plant response rating, Wild buckwheat (wild buckwheat; 62 g/ha, 0 to 100 scale): 100
Plant response rating (0 to 100), Wild buckwheat (wild buckwheat; Rate 1 g/ha): 70
Plant response rating (0 to 100), Wild buckwheat (wild buckwheat; Rate 4 g/ha): 70
Plant response rating (0 to 100), Wild buckwheat (wild buckwheat; Rate 16 g/ha): 100
